The source of these data is US6528501B1, “22s-hydroxycholesta-8, 14-diene derivatives with meiosis regulating activity” (Akzo Nobel N.V., priority 1998, dated 2003).

In data set [1] the test system is cultured cumulus enclosed and naked mouse oocytes. The following applies: cited from earlier work.
A further data set relates to meiosis. The note with it: disclosed in WO 98/28323; cited from earlier work.
A further data set relates to denuded oocytes (DO). The data set is described as follows: Oocyte assay, denuded oocytes (DO): overcoming hypoxanthine maintained meiotic arrest. The data set is classed as cell-based, mice (B6D2-F1, strain C57BL×DBA). The following applies: 22 hours culture, hypoxanthine 4 mM, control value in parentheses. The procedure: (§1) The meiosis activating activity of the […]-hydroxycholesta-8,14-diene derivatives of the invention is measured in an in vitro oocyte assay as the ability to overcome the hypoxanthine maintained meiotic arrest in denuded oocytes (DO) or cumulus enclosed oocytes (CEO). Oocytes arrested in meiosis contain diffused chromosomes which are surrounded by an intact nuclear envelope known as the germinal vesicle (GV). Upon reinitiation of meiosis by the […] gonadotropin surge, the chromosomes recondense and the GV breaks down (GVBD). In vivo, the oocyte is exposed to hypoxanthine (HX), which maintains the oocyte arrested in the meiotic prophase. This meiotic arrest can be mimicked in vitro by addition of hypoxanthine to the culture medium. The agonistic activity of the meiosis activating substances is measured as the ability to overcome the hypoxanthine maintained meiotic arrest in denuded oocytes (DO) or cumulus enclosed oocytes (CEO), i.e. as the ability to induce meiotic resumption in vitro. Ovaries are obtained from immature female mice (B6D2-F1, strain C57BL×DBA). At the age of 19, 20 or 21 days the mice are injected subcutaneously with a single dose of 20 IU follicle stimulating hormone (Humegon, Organon, The Netherlands) in saline. Forty-eight hours after follicle stimulating hormone injection mice are killed by cervical dislocation. The ovaries are removed, freed of extraneous tissue and placed in a multidish containing 0.5 ml preparation medium at 37° C. […] At t=0 the number of oocytes with intact germinal vesicles (GV) or germinal vesicle break-down (GVBD) is counted under an inverted microscope with differential interference contrast equipment. […] At the end of the culture period the number of oocytes with GV or GVBD per group is counted. For statistical analysis the percentage germinal vesicle breakdown is calculated for each group in one block. These percentages are subjected to arcsin transformation, and differences between control and test compounds are analyzed by an ANOVA test for a randomized block design.

The test system of data set [2] is cumulus enclosed oocytes (CEO). The data set is described as follows: Oocyte assay, cumulus enclosed oocytes (CEO): overcoming hypoxanthine maintained meiotic arrest. The data set is classed as cell-based, mice (B6D2-F1, strain C57BL×DBA). The note with it: 22 hours culture, hypoxanthine 4 mM, control value in parentheses. The procedure:
as §1

Regarding `CC(C)=CCC[C@@H](C)[C@H]1CC[C@H]2C3=C(CC[C@]12C)[C@@]1(C)CC[C@H](O)C(C)(C)[C@@H]1CC3` [(3β,5α,20R)-4,4-dimethylcholesta-8,24-dien-3-ol], the “ability to activate the resumption of meiosis” value in data set [1] is “able to activate the resumption of meiosis”.
Turning to `CC(C)CC[C@@H](O)[C@@H](C)[C@H]1CC[C@H]2[C@@H]3CC=C4C[C@@H](O)CC[C@]4(C)[C@H]3CC[C@]12C` [22R-hydroxycholesterol], the “agonist/antagonist of meiosis activating substance” value with meiosis was “antagonist”.
On to `CC(C)=CC[C@H](O)[C@@H](C)[C@H]1CC=C2C3=C(CC[C@@]21C)[C@@]1(C)CC[C@H](O)C(C)(C)[C@@H]1CC3` [Example 2, (3β,5α,20S,22S )-4,4-Dimethylcholesta-8,14,24-triene-3,22-diol], for which the melting point fell in the range of 106 to 108 °C. Further, the “% GVBD DO assay exp.” value with denuded oocytes (DO) (5 μM) is reported as 97(2) %. In addition, the “% GVBD CEO assay exp.” value in data set [2] (5 μM) is given as 73(2) %.
The compound `CC(C)CC[C@H](O)[C@@H](C)[C@H]1CC=C2C3=C(CC[C@@]21C)[C@@]1(C)CC[C@H](O)C(C)(C)[C@@H]1CC3` [Example 1, (3β,5α,20S ,22S)-4,4-Dimethylcholesta-8,14-diene-3,22-diol] registered a melting point of 142 to 143 °C. The “% GVBD DO assay exp.” value with denuded oocytes (DO) (5 μM) was 85(0) %. The “% GVBD CEO assay exp.” value in data set [2] (5 μM) is 6(3) %.
On to `CC(C)=CCC[C@@H](C)[C@H]1CC=C2C3=C(CC[C@@]21C)[C@@]1(C)CC[C@H](O)C(C)(C)[C@@H]1CC3` [FF-Mas, (3β,5α,20R)-4,4-dimethylcholesta-8,14,24-trien-3-ol], for which the “% GVBD DO assay exp.” value in the data set with denuded oocytes (DO) (10 μM) is listed as 84(7) %. In addition, the “ability to activate the resumption of meiosis” value in data set [1] is listed as “able to activate the resumption of meiosis”. Also, the “% GVBD CEO assay exp.” value in data set [2] (10 μM) is listed as 0(0) %.

The term melting point denotes the temperature, or range, at which the solid turns liquid.
